Experimental data from ChEMBL document CHEMBL1909294, “Translating clinical findings into knowledge in drug safety evaluation--drug induced liver injury prediction system (DILIps)” (PLoS Comput Biol, 2011).

Columns and labels:
Hepatotoxicity [1] = tested on: Hepatotoxicity;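 on HepSE bilirubinemia: bilirubinemia hepatic side effect score drawn from the DILIps training data, a prediction system for drug-induced liver injury; call rule not given here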;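 on HepSE cholecystitis: Cholecystitis-related hepatic side effect score drawn from the DILIps (drug-induced liver injury prediction) training data set; call rule not given here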;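 on HepSE cholelithiasis: hepatic side effect score for cholelithiasis, drawn from the DILIps training data for predicting drug-induced liver injury; call rule not given here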;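 on HepSE cirrhosis: cirrhosis hepatic side effect score taken from the DILIps (drug-induced liver injury prediction) training set; call rule not given here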;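 on HepSE elevated liver function tests: hepatic side effect score for raised liver function tests, as recorded in the DILIps training set used for predicting drug-induced liver injury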; on HepSE hepatic failure: call rule not given here;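 on HepSE hepatomegaly: hepatic side effect score for hepatomegaly, taken from the training set of the DILIps drug-induced liver injury prediction system; call rule not given here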
Hepatotoxicity [2] = tested on: Hepatotoxicity; remark: listed apart in the source;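 on HepSE bilirubinemia: bilirubinemia hepatic side effect score drawn from the DILIps training data, a prediction system for drug-induced liver injury; call rule not given here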;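 on HepSE cholecystitis: Cholecystitis-related hepatic side effect score drawn from the DILIps (drug-induced liver injury prediction) training data set; call rule not given here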;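 on HepSE cholelithiasis: hepatic side effect score for cholelithiasis, drawn from the DILIps training data for predicting drug-induced liver injury; call rule not given here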;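 on HepSE cirrhosis: cirrhosis hepatic side effect score taken from the DILIps (drug-induced liver injury prediction) training set; call rule not given here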;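 on HepSE elevated liver function tests: hepatic side effect score for raised liver function tests, as recorded in the DILIps training set used for predicting drug-induced liver injury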; on HepSE hepatic failure: call rule not given here;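 on HepSE hepatomegaly: hepatic side effect score for hepatomegaly, taken from the training set of the DILIps drug-induced liver injury prediction system; call rule not given here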
Hepatotoxicity [3] = tested on: Hepatotoxicity; remark: listed apart in the source;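 on HepSE bilirubinemia: bilirubinemia hepatic side effect score drawn from the DILIps training data, a prediction system for drug-induced liver injury; call rule not given here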;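 on HepSE cholecystitis: Cholecystitis-related hepatic side effect score drawn from the DILIps (drug-induced liver injury prediction) training data set; call rule not given here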;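 on HepSE cholelithiasis: hepatic side effect score for cholelithiasis, drawn from the DILIps training data for predicting drug-induced liver injury; call rule not given here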;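 on HepSE cirrhosis: cirrhosis hepatic side effect score taken from the DILIps (drug-induced liver injury prediction) training set; call rule not given here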;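 on HepSE elevated liver function tests: hepatic side effect score for raised liver function tests, as recorded in the DILIps training set used for predicting drug-induced liver injury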; on HepSE hepatic failure: call rule not given here
Hepatotoxicity [4] = tested on: Hepatotoxicity; remark: listed apart in the source;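 on HepSE bilirubinemia: bilirubinemia hepatic side effect score drawn from the DILIps training data, a prediction system for drug-induced liver injury; call rule not given here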;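 on HepSE cholecystitis: Cholecystitis-related hepatic side effect score drawn from the DILIps (drug-induced liver injury prediction) training data set; call rule not given here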;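 on HepSE cholelithiasis: hepatic side effect score for cholelithiasis, drawn from the DILIps training data for predicting drug-induced liver injury; call rule not given here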;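 on HepSE cirrhosis: cirrhosis hepatic side effect score taken from the DILIps (drug-induced liver injury prediction) training set; call rule not given here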;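 on HepSE elevated liver function tests: hepatic side effect score for raised liver function tests, as recorded in the DILIps training set used for predicting drug-induced liver injury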; on HepSE hepatic failure: call rule not given here
Hepatotoxicity [5] = tested on: Hepatotoxicity; remark: listed apart in the source; on HepSE hepatic failure: call rule not given here
Hepatotoxicity [6] = tested on: Hepatotoxicity; remark: listed apart in the source; on HepSE hepatic failure: call rule not given here
Hepatotoxicity [7] = tested on: Hepatotoxicity; remark: listed apart in the source
Hepatotoxicity [8] = tested on: Hepatotoxicity; remark: listed apart in the source
Hepatotoxicity [9] = tested on: Hepatotoxicity; remark: listed apart in the source
Hepatotoxicity [10] = tested on: Hepatotoxicity; remark: listed apart in the source
Hepatotoxicity [11] = tested on: Hepatotoxicity; remark: listed apart in the source
Hepatotoxicity [12] = tested on: Hepatotoxicity; remark: listed apart in the source
Hepatotoxicity [13] = tested on: Hepatotoxicity; remark: listed apart in the source
Hepatotoxicity [14] = tested on: Hepatotoxicity; remark: listed apart in the source

| SMILES | HepSE_bilirubinemia (Hepatotoxicity [1]) | HepSE_cholecystitis (Hepatotoxicity [2]) | HepSE_cholelithiasis (Hepatotoxicity [3]) | HepSE_cirrhosis (Hepatotoxicity [4]) | HepSE_elevated liver function tests (Hepatotoxicity [5]) | HepSE_hepatic failure (Hepatotoxicity [6]) | HepSE_hepatic necrosis (Hepatotoxicity [7]) | HepSE_hepatitis (Hepatotoxicity [8]) | HepSE_hepatomegaly (Hepatotoxicity [9]) | HepSE_jaundice (Hepatotoxicity [10]) | HepSE_liver disease (Hepatotoxicity [11]) | HepSE_liver fatty (Hepatotoxicity [12]) | HepSE_liver function tests abnormal (Hepatotoxicity [13]) | HepSE_Combined Scores (Hepatotoxicity [14]) | other results |
| --- | --- | --- | --- | --- | --- | --- | --- | --- | --- | --- | --- | --- | --- | --- | --- |
| COc1cc2nc(N3CCN(C(=O)c4ccco4)CC3)nc(N)c2cc1OC [PRAZOSIN] | 0 | 0 | 0 | 0 | 0 | 0 | 0 | 0 | 0 | 0 | 0 | 0 | 0 | 0 |  |
| CC(C)OC(=O)CCC/C=C\C[C@@H]1[C@@H](/C=C/[C@@H](O)COc2cccc(C(F)(F)F)c2)[C@H](O)C[C@@H]1O [TRAVOPROST] | 0 | 0 | 0 | 0 | 0 | 0 | 0 | 0 | 0 | 0 | 0 | 0 | 0 | 0 |  |
| CN(CCOc1ccc(NS(C)(=O)=O)cc1)CCc1ccc(NS(C)(=O)=O)cc1 [DOFETILIDE] | 0 | 0 | 0 | 0 | 0 | 0 | 0 | 0 | 0 | 0 | 0 | 0 | 0 | 0 |  |
| CN1C2CCCC1CC(NC(=O)c1nn(C)c3ccccc13)C2 (configuration not stated) [GRANISETRON] | 1 | 0 | 0 | 0 | 0 | 0 | 0 | 0 | 0 | 1 | 0 | 0 | 1 | 3 |  |
| Cc1cn([C@H]2C[C@H](O)[C@@H](CO)O2)c(=O)[nH]c1=O [DOXRIBTIMINE] | 0 | 0 | 0 | 0 | 0 | 0 | 0 | 1 | 0 | 0 | 0 | 0 | 0 | 1 |  |
| CN(C)CCOC(=O)C(c1ccccc1)C1(O)CCCC1 (configuration not stated) [CYCLOPENTOLATE] | 0 | 0 | 0 | 0 | 0 | 0 | 0 | 0 | 0 | 0 | 0 | 0 | 0 | 0 |  |
| C[C@]12CC[C@@H]3c4ccc(O)cc4CC[C@H]3[C@@H]1CC[C@@H]2O [ESTRADIOL] | 0 | 0 | 0 | 0 | 1 | 0 | 0 | 1 | 0 | 1 | 0 | 0 | 0 | 3 |  |
| CO[C@@]1(NC(=O)C2SC(=C(C(N)=O)C(=O)O)S2)C(=O)N2C(C(=O)O)=C(CSc3nnnn3C)CS[C@@H]21 (some centres not stated) [CEFOTETAN] | 0 | 0 | 0 | 0 | 0 | 0 | 0 | 0 | 0 | 0 | 0 | 0 | 0 | 0 |  |
| Nc1ccc(S(=O)(=O)c2ccc(N)cc2)cc1 [DAPSONE] |  |  |  |  |  |  |  |  |  |  |  |  |  |  | HepSE_bilirubinemia (Hepatotoxicity [1]; Liver): 0; HepSE_cholecystitis (Hepatotoxicity [2]; Liver): 0; HepSE_cholelithiasis (Hepatotoxicity [3]; Liver): 0; HepSE_cirrhosis (Hepatotoxicity [4]; Liver): 0; HepSE_elevated liver function tests (Hepatotoxicity [5]; Liver): 0; HepSE_hepatic failure (Hepatotoxicity [6]; Liver): 0; HepSE_hepatic necrosis (Hepatotoxicity [7]; Liver): 0; HepSE_hepatitis (Hepatotoxicity [8]; Liver): 0; HepSE_hepatomegaly (Hepatotoxicity [9]; Liver): 0; HepSE_jaundice (Hepatotoxicity [10]; Liver): 0; HepSE_liver disease (Hepatotoxicity [11]; Liver): 0; HepSE_liver fatty (Hepatotoxicity [12]; Liver): 0; HepSE_liver function tests abnormal (Hepatotoxicity [13]; Liver): 0; HepSE_Combined Scores (Hepatotoxicity [14]; Liver): 0 |
| O=C([O-])O.[Na+] [SODIUM BICARBONATE] |  |  |  |  |  |  |  |  |  |  |  |  |  |  | HepSE_bilirubinemia (Hepatotoxicity [1]; Liver): 0; HepSE_cholecystitis (Hepatotoxicity [2]; Liver): 0; HepSE_cholelithiasis (Hepatotoxicity [3]; Liver): 0; HepSE_cirrhosis (Hepatotoxicity [4]; Liver): 0; HepSE_elevated liver function tests (Hepatotoxicity [5]; Liver): 0; HepSE_hepatic failure (Hepatotoxicity [6]; Liver): 0; HepSE_hepatic necrosis (Hepatotoxicity [7]; Liver): 0; HepSE_hepatitis (Hepatotoxicity [8]; Liver): 0; HepSE_hepatomegaly (Hepatotoxicity [9]; Liver): 0; HepSE_jaundice (Hepatotoxicity [10]; Liver): 0; HepSE_liver disease (Hepatotoxicity [11]; Liver): 0; HepSE_liver fatty (Hepatotoxicity [12]; Liver): 0; HepSE_liver function tests abnormal (Hepatotoxicity [13]; Liver): 0; HepSE_Combined Scores (Hepatotoxicity [14]; Liver): 0 |
| CC(CCc1ccccc1)NCC(O)c1ccc(O)c(C(N)=O)c1 (configuration not stated) [LABETALOL] | 0 | 0 | 0 | 0 | 1 | 0 | 1 | 1 | 0 | 1 | 0 | 0 | 0 | 4 |  |
| COc1ccccc1OCC(O)COC(N)=O (configuration not stated) [METHOCARBAMOL] | 0 | 0 | 0 | 0 | 0 | 0 | 0 | 0 | 0 | 1 | 0 | 0 | 0 | 1 |  |
| CCCCc1nc(N)[se]c1CCC | 0 | 0 | 0 | 0 | 0 | 0 | 0 | 0 | 0 | 0 | 0 | 0 | 0 | 0 |  |
